Measured values from patent publication US20240409585A1, “MACROCYCLIC IMMUNOMODULATORS” (priority 2021, published 2024).
Numbered stars: 1 amine (or outer) side, 2 acyl side, 3 side chain; on linkers, the order of the positions; unused ones are H or OH. Bridge positions count the residues as written; N and C are the ends. Square brackets hold non-standard residues; d marks the D form. Peptide text beside a SMILES is read from it. X35 = O=C([C@H](Cc1ccc(-c2cccc(F)c2)cc1)N[*:1])[*:2]; Phe(4-COOH) = N[C@@H](Cc1ccc(C(=O)O)cc1)C(=O)O; Phe(4-CH2NH2) = NCc1ccc(C[C@H](N)C(=O)O)cc1; Bip = N[C@@H](Cc1ccc(-c2ccccc2)cc1)C(=O)O; pY = N[C@@H](Cc1ccc(OP(=O)(O)O)cc1)C(=O)O; d(aThr) = C[C@@H](O)[C@@H](N)C(=O)O; 3Pal = N[C@@H](Cc1cccnc1)C(=O)O; dNle = CCCC[C@@H](N)C(=O)O; dNva = CCC[C@@H](N)C(=O)O; NMeA = CN[C@@H](C)C(=O)O; Dab = NCC[C@H](N)C(=O)O

biological target: T1, PE-labeled human PD-L1-Ig binding to Jurkat cell line over-expressing human PD-1 (Jurkat-PD-1) (Homo sapiens, UniProt Q15116); experiment: Jurkat-PD-1 Cell Binding High-Content Screening Assay (CBA): Method 1; settings: Jurkat HPDL1 PD1 IC50 (uM) (Method 1), Jurkat-hPD-1 cells, PE-labeled PD-L1-Ig 20 nM final
T1 construct: expressed in transfected cells; host or cells: Jurkat
T1 sequence (Q15116 25-288): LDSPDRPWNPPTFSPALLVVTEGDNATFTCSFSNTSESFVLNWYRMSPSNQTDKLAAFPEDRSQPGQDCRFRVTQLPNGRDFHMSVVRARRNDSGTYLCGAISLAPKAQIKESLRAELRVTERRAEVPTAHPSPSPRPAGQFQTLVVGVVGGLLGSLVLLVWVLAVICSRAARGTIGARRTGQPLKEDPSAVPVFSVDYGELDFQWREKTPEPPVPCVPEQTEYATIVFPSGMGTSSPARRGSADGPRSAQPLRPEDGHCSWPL

| Compound | IC50 |
| --- | --- |
| CC(C)C[C@@H]1NC(=O)[C@H](Cc2c[nH]c3ccccc23)NC(=O)[C@H](CC(=O)O)NC(=O)[C@H](Cc2ccc(OP(=O)(O)O)cc2)NC(=O)[C@H](Cc2ccccc2)NC(=O)CSC[C@@H](C(=O)N[C@@H](C)C(N)=O)NC(=O)[C@H](CO)NC(=O)[C@H](C(C)C)NC(=O)[C@H](CC(C)C)NC(=O)[C@H](CC(N)=O)NC(=O)[C@@H](C)NC(=O)[C@H](C)N(C)C(=O)[C@H](C(C)C)NC(=O)[C@H](Cc2ccc(-c3ccccc3)cc2)NC1=O [Compound 1756] ({CH2CO}-F[pY]DWL[Bip]V[NMeA][dA]NLVSCA-NH2; thioether N-14) | 0.03 µM |

same assay, conditions: Jurkat-hPD-1 cells, PE-labeled PD-L1-Ig 20 nM final; read-out: Jurkat HPDL1 PD1 IC50 (uM) (Method 1)

| Compound | IC50 |
| --- | --- |
| CC(C)C[C@@H]1NC(=O)[C@H](Cc2c[nH]c3ccccc23)NC(=O)[C@H](CC(=O)O)NC(=O)[C@H](Cc2ccc(O)cc2)NC(=O)[C@H](Cc2ccccc2)NC(=O)CSC[C@@H](C(=O)N[C@@H](C)C(N)=O)NC(=O)[C@H](CO)NC(=O)[C@H](C(C)C)NC(=O)[C@H](CC(C)C)NC(=O)[C@H](CC(N)=O)NC(=O)[C@@H](CC(C)C)NC(=O)[C@H](C)N(C)C(=O)[C@H](C(C)C)NC(=O)[C@H](Cc2ccc(-c3ccccc3)cc2)NC1=O [Compound 1745] ({CH2CO}-FYDWL[Bip]V[NMeA][dL]NLVSCA-NH2; thioether N-14) | 0.02 µM |
| CC(C)C[C@@H]1NC(=O)[C@H](Cc2c[nH]c3ccccc23)NC(=O)[C@H](CC(=O)O)NC(=O)[C@H](Cc2ccc(O)cc2)NC(=O)[C@H](Cc2ccccc2)NC(=O)CSC[C@@H](C(=O)N[C@@H](C)C(N)=O)NC(=O)[C@H](CO)NC(=O)[C@H](C(C)C)NC(=O)[C@H](CC(C)C)NC(=O)[C@H](CCN)NC(=O)[C@@H](C)NC(=O)[C@H](C)N(C)C(=O)[C@H](CCCNC(=N)N)NC(=O)[C@H](Cc2ccc(-c3ccccc3)cc2)NC1=O [Compound 1751] ({CH2CO}-FYDWL[Bip]R[NMeA][dA][Dab]LVSCA-NH2; thioether N-14) | 0.03 µM |
| CC(C)C[C@@H]1NC(=O)[C@H](Cc2c[nH]c3ccccc23)NC(=O)[C@H](CC(=O)O)NC(=O)[C@H](Cc2ccc(O)cc2)NC(=O)[C@H](Cc2ccccc2)NC(=O)CSC[C@@H](C(=O)NCC(N)=O)NC(=O)[C@H](CO)NC(=O)[C@H](C(C)C)NC(=O)[C@H](CC(C)C)NC(=O)[C@H](CC(N)=O)NC(=O)[C@@H]([C@@H](C)O)NC(=O)[C@H](C)N(C)C(=O)[C@H](C(C)C)NC(=O)[C@H](Cc2ccc(-c3ccccc3)cc2)NC1=O [Compound 1752] ({CH2CO}-FYDWL[Bip]V[NMeA][d(aThr)]NLVSCG-NH2; thioether N-14) | 0.03 µM |
| CCCC[C@H]1NC(=O)[C@H](C)N(C)C(=O)[C@H](C(C)C)NC(=O)[C@H](Cc2ccc(-c3ccccc3)cc2)NC(=O)[C@H](CC(C)C)NC(=O)[C@H](Cc2c[nH]c3ccccc23)NC(=O)[C@H](CC(=O)O)NC(=O)[C@H](Cc2ccc(O)cc2)NC(=O)[C@H](Cc2ccccc2)NC(=O)CSC[C@@H](C(=O)N[C@@H](C)C(N)=O)NC(=O)[C@H](CO)NC(=O)[C@H](C(C)C)NC(=O)[C@H](CC(C)C)NC(=O)[C@H](CC(N)=O)NC1=O [Compound 1753] ({CH2CO}-FYDWL[Bip]V[NMeA][dNle]NLVSCA-NH2; thioether N-14) | 0.03 µM |
| CC(C)C[C@@H]1NC(=O)[C@H](Cc2c[nH]c3ccccc23)NC(=O)[C@H](CC(=O)O)NC(=O)[C@H](Cc2ccc(C(=O)O)cc2)NC(=O)[C@H](CC(N)=O)NC(=O)CSC[C@@H](C(=O)N[C@@H](C)C(N)=O)NC(=O)[C@H](CO)NC(=O)[C@H](C(C)C)NC(=O)[C@H](CC(C)C)NC(=O)[C@H](CC(N)=O)NC(=O)[C@@H](C)NC(=O)[C@H](C)N(C)C(=O)[C@H](C(C)C)NC(=O)[C@H](Cc2ccc(-c3ccccc3)cc2)NC1=O [Compound 1754] ({CH2CO}-N[Phe(4-COOH)]DWL[Bip]V[NMeA][dA]NLVSCA-NH2; thioether N-14) | 0.03 µM |
| CCC[C@H]1NC(=O)[C@H](C)N(C)C(=O)[C@H](C(C)C)NC(=O)[C@H](Cc2ccc(-c3ccccc3)cc2)NC(=O)[C@H](CC(C)C)NC(=O)[C@H](Cc2c[nH]c3ccccc23)NC(=O)[C@H](CC(=O)O)NC(=O)[C@H](Cc2ccc(O)cc2)NC(=O)[C@H](Cc2ccccc2)NC(=O)CSC[C@@H](C(=O)N[C@@H](C)C(N)=O)NC(=O)[C@H](CO)NC(=O)[C@H](C(C)C)NC(=O)[C@H](CC(C)C)NC(=O)[C@H](CC(N)=O)NC1=O [Compound 1755] ({CH2CO}-FYDWL[Bip]V[NMeA][dNva]NLVSCA-NH2; thioether N-14) | 0.03 µM |
| CC(C)C[C@@H]1NC(=O)[C@H](Cc2c[nH]c3ccccc23)NC(=O)[C@H](CC(=O)O)NC(=O)[C@H](Cc2ccc(O)cc2)NC(=O)[C@H](Cc2ccccc2)NC(=O)CSC[C@@H](C(=O)NCC(N)=O)NC(=O)[C@H](CO)NC(=O)[C@H](C(C)C)NC(=O)[C@H](CC(C)C)NC(=O)[C@H](CC(N)=O)NC(=O)CNC(=O)[C@H](C)N(C)C(=O)[C@H](C(C)C)NC(=O)[C@H](Cc2ccc(-c3ccccc3)cc2)NC1=O [Compound 1757] ({CH2CO}-FYDWL[Bip]V[NMeA]GNLVSCG-NH2; thioether N-14) | 0.03 µM |
| CC(C)C[C@@H]1NC(=O)[C@H](Cc2c[nH]c3ccccc23)NC(=O)[C@H](CC(=O)O)NC(=O)[C@H](Cc2ccc(C(=O)O)cc2)NC(=O)[C@H](Cc2cnc[nH]2)NC(=O)CSC[C@@H](C(=O)N[C@@H](C)C(N)=O)NC(=O)[C@H](CO)NC(=O)[C@H](C(C)C)NC(=O)[C@H](CC(C)C)NC(=O)[C@H](CC(N)=O)NC(=O)[C@@H](C)NC(=O)[C@H](C)N(C)C(=O)[C@H](C(C)C)NC(=O)[C@H](Cc2ccc(-c3ccccc3)cc2)NC1=O [Compound 1760] ({CH2CO}-H[Phe(4-COOH)]DWL[Bip]V[NMeA][dA]NLVSCA-NH2; thioether N-14) | 0.03 µM |

The remaining lines, values ahead:

| IC50 | Compound |
| --- | --- |
| 0.03 µM | CC(C)C[C@@H]1NC(=O)[C@H](Cc2c[nH]c3ccccc23)NC(=O)[C@H](CC(=O)O)NC(=O)[C@H](Cc2ccc(O)cc2)NC(=O)[C@H](CC(N)=O)NC(=O)CSC[C@@H](C(=O)N[C@@H](C)C(N)=O)NC(=O)[C@H](CO)NC(=O)[C@H](C(C)C)NC(=O)[C@H](CC(C)C)NC(=O)[C@H](CCN)NC(=O)[C@@H](C)NC(=O)[C@H](C)N(C)C(=O)[C@H](CCCNC(=N)N)NC(=O)[C@H](Cc2ccc(-c3ccccc3)cc2)NC1=O [Compound 1758] ({CH2CO}-NYDWL[Bip]R[NMeA][dA][Dab]LVSCA-NH2; thioether N-14) |
| 0.03 µM | CC(C)C[C@@H]1NC(=O)[C@H](Cc2c[nH]c3ccccc23)NC(=O)[C@H](CC(=O)O)NC(=O)[C@H](Cc2ccc(O)cc2)NC(=O)[C@H](Cc2ccccc2)NC(=O)CSC[C@@H](C(=O)N[C@@H](C)C(N)=O)NC(=O)[C@H](CO)NC(=O)[C@H](C(C)C)NC(=O)[C@H](CC(C)C)NC(=O)[C@H](CC(N)=O)NC(=O)[C@@H](C)NC(=O)[C@H](C)N(C)C(=O)[C@H](C(C)C)NC(=O)[C@H](Cc2ccc(-c3cccc(F)c3)cc2)NC1=O [Compound 1759] ({CH2CO}-FYDWL[X35]V[NMeA][dA]NLVSCA-NH2; thioether N-14) |
| 0.02 µM | CC(C)C[C@@H]1NC(=O)[C@H](Cc2c[nH]c3ccccc23)NC(=O)[C@H](CC(=O)O)NC(=O)[C@H](Cc2ccc(C(=O)O)cc2)NC(=O)[C@H](Cc2ccccc2)NC(=O)CSC[C@@H](C(=O)N[C@@H](C)C(N)=O)NC(=O)[C@H](CO)NC(=O)[C@H](C(C)C)NC(=O)[C@H](CC(C)C)NC(=O)[C@H](CCCCN)NC(=O)[C@@H](C)NC(=O)[C@H](C)N(C)C(=O)[C@H](CCC(=O)O)NC(=O)[C@H](Cc2ccc(-c3ccccc3)cc2)NC1=O [Compound 1746] ({CH2CO}-F[Phe(4-COOH)]DWL[Bip]E[NMeA][dA]KLVSCA-NH2; thioether N-14) |
| 0.02 µM | CC(C)C[C@@H]1NC(=O)[C@H](Cc2c[nH]c3ccccc23)NC(=O)[C@H](CC(=O)O)NC(=O)[C@H](Cc2ccc(C(=O)O)cc2)NC(=O)[C@H](Cc2cccnc2)NC(=O)CSC[C@@H](C(=O)N[C@@H](C)C(N)=O)NC(=O)[C@H](CO)NC(=O)[C@H](C(C)C)NC(=O)[C@H](CC(C)C)NC(=O)[C@H](CC(N)=O)NC(=O)[C@@H](C)NC(=O)[C@H](C)N(C)C(=O)[C@H](C(C)C)NC(=O)[C@H](Cc2ccc(-c3ccccc3)cc2)NC1=O [Compound 1747] ({CH2CO}-[3Pal][Phe(4-COOH)]DWL[Bip]V[NMeA][dA]NLVSCA-NH2; thioether N-14) |
| 0.02 µM | CC(C)C[C@@H]1NC(=O)[C@H](Cc2c[nH]c3ccccc23)NC(=O)[C@H](CC(=O)O)NC(=O)[C@H](Cc2ccc(O)cc2)NC(=O)[C@H](Cc2ccccc2)NC(=O)CSC[C@@H](C(=O)N[C@@H](C)C(N)=O)NC(=O)[C@H](CO)NC(=O)[C@H](C(C)C)NC(=O)[C@H](CC(C)C)NC(=O)[C@H](CCCCN)NC(=O)[C@@H](C)NC(=O)[C@H](C)N(C)C(=O)[C@H](C(C)C)NC(=O)[C@H](Cc2ccc(-c3ccccc3)cc2)NC1=O [Compound 1748] ({CH2CO}-FYDWL[Bip]V[NMeA][dA]KLVSCA-NH2; thioether N-14) |
| 0.02 µM | CC(C)C[C@@H]1NC(=O)[C@H](Cc2c[nH]c3ccccc23)NC(=O)[C@H](CC(=O)O)NC(=O)[C@H](Cc2ccc(O)cc2)NC(=O)[C@H](Cc2ccccc2)NC(=O)CSC[C@@H](C(=O)N[C@@H](C)C(N)=O)NC(=O)[C@H](CO)NC(=O)[C@H](C(C)C)NC(=O)[C@H](CC(C)C)NC(=O)[C@H](CCC(=O)O)NC(=O)[C@@H](C)NC(=O)[C@H](C)N(C)C(=O)[C@H](C(C)C)NC(=O)[C@H](Cc2ccc(-c3ccccc3)cc2)NC1=O [Compound 1749] ({CH2CO}-FYDWL[Bip]V[NMeA][dA]ELVSCA-NH2; thioether N-14) |
| 0.02 µM | CC(C)C[C@@H]1NC(=O)[C@H](Cc2c[nH]c3ccccc23)NC(=O)[C@H](CC(=O)O)NC(=O)[C@H](Cc2ccc(CN)cc2)NC(=O)[C@H](Cc2ccccc2)NC(=O)CSC[C@@H](C(=O)N[C@@H](C)C(N)=O)NC(=O)[C@H](CO)NC(=O)[C@H](C(C)C)NC(=O)[C@H](CC(C)C)NC(=O)[C@H](CC(N)=O)NC(=O)[C@@H](C)NC(=O)[C@H](C)N(C)C(=O)[C@H](C(C)C)NC(=O)[C@H](Cc2ccc(-c3ccccc3)cc2)NC1=O [Compound 1750] ({CH2CO}-F[Phe(4-CH2NH2)]DWL[Bip]V[NMeA][dA]NLVSCA-NH2; thioether N-14) |
